Test results: patent US20260191848A1, “METHODS OF REVERSING PARP-RESISTANCE IN CANCER” (THE TRUSTEES OF COLUMBIA UNIVERSITY IN THE CITY OF NEW YORK, priority 2023, published 2026)
Entries after “also recorded” stand apart in the source; their conditions may differ.

Assays:
[1] = system: talazoparib-resistant Bard1-def tumors; test: Talazoparib-resistant Bard1-def orthotopic allograft in B6/129F1 mice (tumor growth, weight, immunostaining, body weight); format: in vivo, mouse; conditions: for body weight: from treatment initiation until endpoint, talazoparib 0.3 mg/kg/day, axitinib 30 mg/kg/day
Method: (§2) Treatment with Tal (0.3 mg/kg body weight per day, five days/week, oral gavage) began two weeks following tumor-cell injection. Tumors were collected after tumor relapse in the Tal-treated group and were then dissociated and selected to generate Tal-resistant Brca1-def breast cancer cell lines. […] Tal-resistant, Brca1-def tumors were then isolated at 13 weeks following tumor-cell injection. n=32 for Veh-treated mice; n=24 for Tal-treated mice. Data are presented as mean values±SEM. P values were determined by a two-tailed, unpaired, Mann-Whitney test. * at 2 weeks indicates P=0.0169; *** at 3 weeks indicates P=0.0007; **** at 5 and 7 weeks indicates P<0.0001. […] P values were determined by a two-tailed, unpaired, Mann-Whitney test. * at 3 weeks indicates P=0.0174; ns: not significant. […] Treatment began one-week post tumor-cell injection. […] Data are presented as mean values±SEM. P values were determined by a two-tailed, unpaired, Mann-Whitney test. ** at 3 and 4 weeks indicates P=0.0043; ** at 5 weeks indicates P=0.0095.

[2] = system: Brca1-def Tal-sensitive tumors; test: In-vivo PARPi-response-and-recurrence model, Brca1-def orthotopic allograft (talazoparib-sensitive)
Method: (§3) Treatment with Tal (0.3 mg/kg body weight per day, five days/week, oral gavage) began two weeks following tumor-cell injection. Tumors were collected after tumor relapse in the Tal-treated group and were then dissociated and selected to generate Tal-resistant Brca1-def breast cancer cell lines. […] Tal-resistant, Brca1-def tumors were then isolated at 13 weeks following tumor-cell injection. n=32 for Veh-treated mice; n=24 for Tal-treated mice. Data are presented as mean values±SEM. […] FIG. 1C, Mice were injected with the Tal-resistant (“Tal-Res”), Brca1-def breast cancer cell line isolated in B and then checked for sensitivity to Tal. n=21 for Veh-treated mice; n=31 for Tal-treated mice. […] Treatment began one-week post tumor-cell injection. […] Data are presented as mean values±SEM. […] FIG. 1F, Mice were injected with the Tal-Res, Bard1-def breast cancer cell line isolated in E and then checked for sensitivity to Tal. n=12 for Veh-treated mice; n=14 for Tal-treated mice.
(§4) To study mechanisms of PARPi resistance in vivo, mammary glands from syngeneic B6/129F1 mice were orthotopically injected with luciferase-labeled Brca1- or Bard1-deficient mammary cancer cell lines (hereafter referred to as Brca1-def and Bard1-def) derived from Brca1- or Bard1-conditionally deleted mice^23 (FIGS. 1A and 1D). As tumors started to grow, tumor-bearing mice were randomized and treated five days/week with either vehicle or the PARPi talazoparib (referred to as “Tal” in the figures) at a dose of 0.3 mg/kg body weight/day starting at either 14 days (Brca1-def) or 7 days (Bard1-def) post tumor-cell injection. Tumor size was monitored weekly (FIGS. 1B and 1E). […] While tumor growth in Brca1-def models was monitored for 13 weeks post tumor-cell injection, Bard1-def models could only be monitored for 5 weeks post tumor-cell injection due to the onset of cachexia, as described in the previous studies^36. PARPi-resistant tumors were then collected, and cancer cells were purified and re-injected into the mammary glands of new B6/129F1 recipient mice. Mice were treated following the same dosing schedule as described above.

[3] = system: talazoparib-resistant Brca1-def tumors; test: Talazoparib-resistant Brca1-def orthotopic allograft in B6/129F1 mice (tumor growth, weight, immunostaining, body weight); format: in vivo, mouse; conditions: for body weight: from treatment initiation until endpoint, talazoparib 0.3 mg/kg/day, axitinib 30 mg/kg/day
Method: as §2

[4] = system: Bard1-def Tal-sensitive tumors; test: In-vivo PARPi-response-and-recurrence model, Bard1-def orthotopic allograft (talazoparib-sensitive)
Method: as §3, §4

[5] = system: relapsed high-grade ovarian cancer; conditions: relapsed high-grade ovarian cancer patients, p=0.007; cited from earlier work
[6] = system: talazoparib-resistant Brca1-def tumor cells (pAKT Ser473, pSTAT3); test: Immunoblot after recombinant PGF treatment, talazoparib-resistant Brca1-def tumor cells (Con vs Flt1i); format: cell-based; conditions: 50 ng/ml mouse recombinant PGF, serum-free medium, 15 s
Method: (§1) FIG. 18A-FIG. 18H—FLT1 activation in Brca1- and Bard1-def breast tumor cells induces pro-survival AKT signaling. (FIG. 18A, FIG. 18B) Immunoblot analysis was performed on lysates from Flt1-expressing (Con) and -deficient (Flt1i), talazoparib-resistant (“Res”) Brca1- and Bard1-def tumor cells, that were treated with 50 ng/ml of mouse PGF protein using antibodies against phosphorylated-AKT at serine 473 (pAKT Ser473), AKT, and β-actin. […] Scale bars, 20 μm. (FIG. 18D) Immunostained sections from (C) were quantified using automated QuPath software to identify positively stained cells. n=5 mice for Sen and Res groups for both models. Data were presented as mean values±SEM. […] (FIG. 18E) Representative images of IHC for pAKT Ser473 staining on talazoparib-treated “Tal”, Lenti-Con- and Flt1i-expressing Res tumor sections from both models (see FIG. 3C). Scale bars, 20 μm. […] (FIG. 18G) Representative images of IHC for pAKT Ser473 on Tal-treated and Tal+Axi-treated tumor sections from both models (see FIG. 4A/D). Scale bars, 20 μm. (FIG. 18H) Immunostained sections from (G) were quantified using automated QuPath software to identify positively stained cells. For the Brca1-def model, n=4 tumors from both Tal-treated and Tal+Axi-treated mice. For the Bard1-def model, n=5 tumors from both Tal-treated and Tal+Axi-treated mice. Data were presented as mean values±SEM. […]

[7] = system: talazoparib-resistant Bard1-def tumor cells (pAKT Ser473, pSTAT3); test: Immunoblot after recombinant PGF treatment, talazoparib-resistant Bard1-def tumor cells (Con vs Flt1i); format: cell-based; conditions: 50 ng/ml mouse recombinant PGF, serum-free medium, 10 min
Method: as §1

[8] = talazoparib alone 0.3 mg/kg/day, five days/week, vs vehicle

Which results are given for Cn1ncnc1[C@H]1c2n[nH]c(=O)c3cc(F)cc(c23)N[C@@H]1c1ccc(F)cc1 [talazoparib]?
body weight [1]: remained stable; tumor growth and weight at endpoint, Flt1-repressed (Flt1i) resistant tumor cells ([1]; talazoparib 0.3 mg/kg body weight/day, five days/week, Flt1i+Tal vs Lenti-Con+Tal, endpoint 3 weeks): re-sensitizes PARPi-resistant tumors to talazoparib; tumor regression / response of PARPi-resistant tumor lines to PARPi treatment [1, 8]: no tumor regression; also recorded: failed to respond in-vivo; relapse, time following the start of Tal treatment ([2]; Tal 0.3 mg/kg per day, five days/week, oral gavage, begun two weeks after tumor-cell injection): about seven; development of drug resistance (recurrence of tumors) ([2]; continued talazoparib treatment, monitored 13 weeks post tumor-cell injection): eventually developed drug resistance; also recorded: eventually became refractory to the treatment; tumor growth ([2]; talazoparib 0.3 mg/kg body weight/day, five days/week, oral gavage, from 14 days post tumor-cell injection, vs vehicle): suppressed tumor growth for several weeks; body weight [3]: remained stable; tumor growth and weight at endpoint, Flt1-repressed (Flt1i) resistant tumor cells ([3]; talazoparib 0.3 mg/kg body weight/day, five days/week, Flt1i+Tal vs Lenti-Con+Tal, endpoint 4 weeks): re-sensitizes PARPi-resistant tumors to talazoparib; tumor regression / response of PARPi-resistant tumor lines to PARPi treatment [3, 8]: no tumor regression; also recorded: failed to respond in-vivo; relapse tumors arose, time post tumor-cell injection ([4]; Tal treatment begun one week post tumor-cell injection): about three; development of drug resistance (recurrence of tumors) ([4]; continued talazoparib treatment, monitored 5 weeks post tumor-cell injection): eventually developed drug resistance; also recorded: soon progressed; tumor growth ([4]; talazoparib 0.3 mg/kg body weight/day, five days/week, oral gavage, from 7 days post tumor-cell injection, vs vehicle): responded initially

Which results are given for CNC(=O)c1ccccc1Sc1ccc2c(/C=C/c3ccccn3)n[nH]c2c1 [axitinib]?
body weight [1]: remained stable; body weight [3]: remained stable

For O=C(c1cc(Cc2n[nH]c(=O)c3ccccc23)ccc1F)N1CCN(C(=O)C2CC2)CC1 [olaparib], which “median progression-free survival (PFS)” value [5] is on record?
The value was 8.2 months.

B1: PGF: mouse recombinant PGF (R&D Systems, #465-PL-010), placental growth factor (protein)
chain: VHSQGALSAGNNSTEVEVVPFNEVWGRSYCRPMEKLVYILDEYPDEVSHIFSPSCVLLSRCSGCCGDEGLHCVPIKTANITMQILKIPPNRDPHFYVEMTFSQDVLCECRPILETTKAERRKTKGKRKRSRNSQTEEPHP
Which “activation of AKT (pAKT Ser473 immunoblot)” value [6] does the source give for B1 here?
Its value is “FLT1-dependent activation of AKT”.

What about the “activation of STAT3 (pSTAT3 immunoblot)” value [6] of the same molecule?
Its value is “not STAT3”.

What about the “activation of AKT (pAKT Ser473 immunoblot)” value [7] of the same molecule?
The value was “FLT1-dependent activation of AKT”.

What about the “activation of STAT3 (pSTAT3 immunoblot)” value [7] of the same molecule?
The value was “not STAT3”.
